Eight compounds from PubChem BioAssay (NCI) can be followed below.

Test systems include RXF 393 renal; NCI/ADR-RES ovarian; SNB-75 CNS; SK-MEL-28 melanoma; HS 578T breast; ACHN renal; HL-60(TB) leukemia; OVCAR-5 ovarian; OVCAR-3 ovarian; SF-295 CNS; SNB-19 CNS; SF-268 CNS; LOX IMVI melanoma; HCT-116 colon; U251 CNS; 786-0 renal; NCI-H23 lung; HT29 colon; PC-3 prostate; MOLT-4 leukemia; NCI-H522 lung; NCI-H460 lung; SR leukemia; RPMI-8226 leukemia; EKVX NSCLC; MCF7 breast; MDA-MB-468 breast; MDA-MB-435; OVCAR-4 ovarian; A549 NSCLC; SK-MEL-5 melanoma; M14 melanoma; CAKI-1 renal; HCT-15 colon; OVCAR-8 ovarian; IGROV1 ovarian; SW-620 colon; HOP-62 NSCLC; T-47D breast; HOP-92 NSCLC; DU-145 prostate; SK-OV-3 ovarian; MALME-3M melanoma; A498 renal; CCRF-CEM leukemia; UACC-257 melanoma; HCC-2998 colon; COLO 205 colon; UACC-62 melanoma; KM12 colon; NCI-H226 lung; SF-539 CNS; TK-10 renal; BT-549 breast; K-562 leukemia; SN12C renal.

Holding throughout (experiment): DTP human tumour cell line panel, 48 h

The term GI50 denotes the concentration at which growth is held to half of that of the control. As usually defined, the TGI is the concentration at which net growth stops.

Values joined by “and” are separate entries in the source; they are usually repeats but may differ in a detail not shown here. Identical values can stand only once.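 Protocol summary: plate cells (96-well), add compound at 5 concentrations, incubate 48 h, interpolate endpoints linearly. GI50 is the concentration that inhibits growth by half. TGI is the concentration that stops growth completely.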 A value given as a limit tells only on which side of the number the result lay.

`COc1ccc(/C=C/c2n(Cc3ccc4ccccc4c3)c3ccccc3[n+]2Cc2ccc3ccccc3c2)cc1`: the 50% growth inhibitory concentration (GI50) is 377 nM in the test on RXF 393 renal; 2110 nM in the test with NCI/ADR-RES ovarian; 150 nM with SNB-75 CNS; 818 nM in the test with SK-MEL-28 melanoma; 583 nM in the test on HS 578T breast; 1120 nM with ACHN renal. For the same compound, the GI50 was 268 nM with HL-60(TB) leukemia and 828 nM with OVCAR-5 ovarian. For the same compound, the TGI worked out at 1.59 µM with RXF 393 renal; 5.43 µM in the test on NCI/ADR-RES ovarian; 1480 nM with SNB-75 CNS; 2.08 µM in the test on SK-MEL-28 melanoma; 2.85 µM with HS 578T breast; 2.32 µM in the test on ACHN renal. Also, the values for the concentration for total growth inhibition (TGI) in the test with HL-60(TB) leukemia and in the test on OVCAR-5 ovarian were 993 nM and 2.11 µM, respectively.

On to `Cc1ccc(Cl)cc1NC(=O)Nc1nc2ccc([N+](=O)[O-])cc2s1`, for which the GI50 is 3.25 µM in the test on OVCAR-3 ovarian; 2240 nM in the test on SF-295 CNS; 3.43 µM with SNB-19 CNS; 3.48 µM in the test with SF-268 CNS; 3.28 µM in the test with LOX IMVI melanoma; 2810 nM with HCT-116 colon. In addition, the GI50 in the test with U251 CNS was 3.06 µM; in the test on 786-0 renal it was 2730 nM; in the test with NCI-H23 lung, 2270 nM; in the test on RXF 393 renal it was 2540 nM; in the test on HT29 colon it was 3.28 µM; with PC-3 prostate, 2970 nM. The GI50 in the test on MOLT-4 leukemia is 2300 nM; in the test on NCI-H522 lung, 2080 nM; in the test with NCI-H460 lung, 2690 nM; in the test with SR leukemia it was 2050 nM; in the test on RPMI-8226 leukemia, 1850 nM; in the test on NCI/ADR-RES ovarian, 2540 nM. In addition, the GI50 with EKVX NSCLC is 2790 nM; with MCF7 breast, 2710 nM; in the test with MDA-MB-468 breast, 2240 nM; in the test on MDA-MB-435, 3.33 µM; in the test on OVCAR-4 ovarian, 3.36 µM; with A549 NSCLC it was 2940 nM. Also, the GI50 with SK-MEL-5 melanoma was 1840 nM; in the test with M14 melanoma, 2870 nM; with CAKI-1 renal, 3.18 µM; in the test on SK-MEL-28 melanoma, 3420 nM; in the test with HCT-15 colon, 2930 nM; in the test with OVCAR-8 ovarian, 3.07 µM. Moreover, the GI50 in the test with IGROV1 ovarian is 3.92 µM; in the test on SW-620 colon it was 3.06 µM; in the test on HOP-62 NSCLC it was 3.47 µM; with T-47D breast it was 2310 nM; in the test on HOP-92 NSCLC, 2290 nM; with DU-145 prostate it was 3.68 µM. The GI50 in the test with SK-OV-3 ovarian is 2190 nM; in the test on MALME-3M melanoma, 2170 nM; with A498 renal, 2380 nM; in the test with CCRF-CEM leukemia, 3.02 µM; in the test with UACC-257 melanoma it was 2210 nM; in the test on HCC-2998 colon it was 3.43 µM. Besides, the GI50 was 2750 nM in the test with HS 578T breast; 1850 nM in the test on COLO 205 colon; 3090 nM in the test with ACHN renal; 2860 nM with UACC-62 melanoma; 1880 nM in the test with HL-60(TB) leukemia; 3.1 µM with KM12 colon. The GI50 in the test with NCI-H226 lung was 3.34 µM; in the test on SF-539 CNS, 2600 nM; in the test on TK-10 renal it was 3.49 µM; with OVCAR-5 ovarian, 3330 nM; in the test with BT-549 breast, 2350 nM; in the test with K-562 leukemia, 2500 nM. In the test on SN12C renal, the GI50 is 2860 nM. The TGI turned out to be 11.6 µM in the test on OVCAR-3 ovarian; 6.59 µM in the test with SF-295 CNS; 12.7 µM with SNB-19 CNS; 13.8 µM in the test with SF-268 CNS; 12.1 µM in the test on LOX IMVI melanoma; 11 µM in the test on HCT-116 colon. The total growth inhibition concentration (TGI) in the test with U251 CNS is 10.7 µM; with 786-0 renal, 10 µM; in the test with NCI-H23 lung it was 6.58 µM; with RXF 393 renal it was 9.73 µM; with HT29 colon it was 10.5 µM; in the test on PC-3 prostate it was 11.3 µM. The TGI in the test with MOLT-4 leukemia was determined as 6.76 µM; in the test on NCI-H522 lung it was 7.17 µM; with NCI-H460 lung, 10.2 µM; in the test with SR leukemia, 5.63 µM; in the test with RPMI-8226 leukemia, 5.58 µM; with NCI/ADR-RES ovarian, 9.04 µM. For the same compound, the concentration for total growth inhibition (TGI) is 10.1 µM in the test with EKVX NSCLC; 8.92 µM with MCF7 breast; 6600 nM in the test with MDA-MB-468 breast; 12.2 µM in the test on MDA-MB-435; 14.2 µM in the test with OVCAR-4 ovarian; 10.1 µM in the test on A549 NSCLC. The TGI was 3.6 µM in the test on SK-MEL-5 melanoma; 10.8 µM in the test on M14 melanoma; 11.7 µM in the test with CAKI-1 renal; 12.3 µM in the test on SK-MEL-28 melanoma; 11.3 µM with HCT-15 colon; 11.7 µM in the test with OVCAR-8 ovarian. For the same compound, the TGI in the test with IGROV1 ovarian came to 14.3 µM; in the test on SW-620 colon, 12.4 µM; in the test with HOP-62 NSCLC, 11.2 µM; in the test with T-47D breast, 7.87 µM; in the test with HOP-92 NSCLC it was 6.42 µM; in the test on DU-145 prostate, 14.1 µM. For the same compound, the TGI stood at 6.52 µM in the test with SK-OV-3 ovarian; 6.39 µM with MALME-3M melanoma; 6.29 µM in the test on A498 renal; 12.5 µM in the test with CCRF-CEM leukemia; 6.63 µM with UACC-257 melanoma; 10.9 µM in the test on HCC-2998 colon. Also, the TGI was determined as 9.4 µM in the test with HS 578T breast; 3.58 µM with COLO 205 colon; 10.6 µM with ACHN renal; 11.5 µM in the test on UACC-62 melanoma; 4700 nM with HL-60(TB) leukemia; 10.3 µM in the test on KM12 colon. The concentration for total growth inhibition (TGI) in the test on NCI-H226 lung came out at 12 µM; in the test on SF-539 CNS it was 6.9 µM; with TK-10 renal it was 13 µM; with OVCAR-5 ovarian, 11.9 µM; with BT-549 breast it was 7.92 µM; with K-562 leukemia, 10.2 µM. The same compound returned a total growth inhibition concentration (TGI) in the test with SN12C renal of 9.7 µM.

On to `N#Cc1c(-c2ccc(Cl)cc2)nc(SCc2ccc(F)cc2)nc1N1CCNCC1`, for which, in the test on MDA-MB-468 breast, the GI50 was 1470 nM and the TGI stood at 2880 nM.

In the case of `CCOc1ccc(/C=C/[N+](=O)[O-])cc1`, in the test on MDA-MB-468 breast, the GI50 was 1970 nM and the TGI was determined as 3970 nM.

As for `N#CN1CCC[C@H]1C(=O)N1CCc2c(-c3[nH]nc4ncccc34)cccc21`, in the test with MDA-MB-468 breast, the GI50 was under 10 nM and the TGI is under 10 nM.

As to `c1ccc(-c2nn(-c3ccccc3)[n+](-c3cccc4ccccc34)n2)cc1`, in the test with MDA-MB-468 breast, the GI50 is 265 nM and the TGI is 1770 nM.

As to `CNc1ccc(-c2cc(=O)oc3ccc(Cl)cc23)cc1`, in the test on MDA-MB-468 breast, the GI50 is 219 nM and 84.1 nM; the TGI is 926 nM and 877 nM.

As for `COc1ccc(Cc2cnc(NC(=O)c3sc4ccccc4c3Cl)s2)cc1`, in the test on MDA-MB-468 breast, the 50% growth inhibitory concentration (GI50) is 416 nM and the TGI was over 100000 nM.
